Source: ChEMBL document CHEMBL1139916, “6-hydroxy to 6'''-amino tethered ring-to-ring macrocyclic aminoglycosides as probes for APH(3')-IIIa kinase” (2007)

Tests used:
[1] = system: Staphylococcus aureus; assay: Growth inhibition of Staphylococcus aureus; format: functional
[2] = system: Escherichia coli; assay: Growth inhibition of Escherichia coli; format: functional
[3] = Activity of bacterial APH(3')-3a kinase assessed high affinity phosphorylation
[4] = Activity of bacterial APH(3')-3a kinase assessed low affinity phosphorylation
[5] = Ratio of Kcat/Km of bacterial APH(3')-3a kinase-mediated high affinity phosphorylation
[6] = Ratio of Kcat/Km of bacterial APH(3')-3a kinase-mediated low affinity phosphorylation
[7] = Activity of bacterial APH(3')-3a kinase
[8] = Ratio of Kcat/Km of bacterial APH(3')-3a kinase

Row | Structure (SMILES) | MIC [1] [µg/mL] | MIC [2] [µg/mL] | Km [3] [µM] | Vmax [3] [µM/s] | kcat [3] [s⁻¹] | Km [4] [µM] | Vmax [4] [µM/s] | kcat [4] [s⁻¹] | kcat/Km [5] | kcat/Km [6] | Km [7] [µM] | Vmax [7] [µM/s] | kcat [7] [s⁻¹] | kcat/Km [8]
1 | N[C@H]1[C@H]2O[C@H]3[C@@H](O)[C@H](O[C@@H]4[C@@H](OCCCCCNC[C@H](O2)[C@@H](O)[C@@H]1O)[C@H](N)C[C@H](N)[C@H]4O[C@H]1O[C@H](CO)[C@@H](O)[C@H](O)[C@H]1N)O[C@@H]3CO | > 40 | > 10 |  |  |  |  |  |  |  |  |  |  |  | 
2 | NC[C@@H]1O[C@H](O[C@H]2[C@@H](O)[C@H](O[C@@H]3[C@@H](O)[C@H](N)C[C@H](N)[C@H]3O[C@H]3O[C@H](CO)[C@@H](O)[C@H](O)[C@H]3N)O[C@@H]2CO)[C@H](N)[C@@H](O)[C@@H]1O |  |  | 16.9 | 0.183 | 0.19 | 51.1 | 0.292 | 0.304 | 1.12 10^4/M/s | 5.95 10^3/M/s |  |  |  | 
3 | N[C@H]1[C@H]2O[C@H]3[C@@H](O)[C@H](O[C@@H]4[C@@H](OCCCCC(=O)NC[C@H](O2)[C@@H](O)[C@@H]1O)[C@H](N)C[C@H](N)[C@H]4O[C@H]1O[C@H](CO)[C@@H](O)[C@H](O)[C@H]1N)O[C@@H]3CO | > 40 | > 10 |  |  |  |  |  |  |  |  | 21.8 | 0.07 | 0.073 | 3.35 10^3/M/s
